{"source": "patent US20180064742A1", "about": "“PET IMAGING TRACER FOR IMAGING PROSTATE CANCER” (THE REGENTS OF THE UNIVERSITY OF CALIFORNIA, priority 2015, published 2018)", "test_system": "tumors", "assay": "In vivo accumulation in tumors versus benign tissue, with tumor alkalinization models", "description": "Solid tumors are hypoxic with altered metabolism, resulting in secretion of acids into the extracellular matrix and lower relative pH, a feature associated with local invasion and metastasis. Therapeutic and diagnostic agents responsive to this microenvironment may improve tumor-specific delivery. In various embodiments, the invention reflects a general strategy whereby caged small-molecule drugs or imaging agents liberate their parent compounds in regions of low interstitial pH. In this manuscript, we present a new acid-labile prodrug method based on the glycosylamine linkage, and its application to a class of positron emission tomography (PET) imaging tracers, termed [^18F] fluorodeoxyglycosyl amines ([^18F] FDG amines). [^18F]FDG amines operate via a proposed two-step mechanism, in which an acid-labile precursor decomposes to form a common radiotracer, e.g., 2-deoxy-2-[18F]fluoro-D-glucose, which is subsequently accumulated by glycan, e.g., glucose, avid cells. […]\nImaging was performed using standard micro-positron emission tomography (microPET) techniques and data analysis. […] The resulting images are analyzed using open source Amide software (FIGS. 6, 13). For quantification of uptake in tissues, regions of interest (ROI) are drawn over tissues using the CT portion of the exam. […]"}
{"smiles": "OC[C@H]1OC(NCc2ccc(-c3ccccc3)cc2)[C@H]([18F])[C@@H](O)[C@@H]1O", "note": "(some centres unmarked)", "values": [{"measurement": "relative accumulation in tumors over benign tissue", "setting": "in vivo", "result": "greater relative accumulation in tumors over benign tissue"}, {"measurement": "effect of tumor alkalinization on tumor accumulation", "setting": "sodium bicarbonate treatment, or overexpression of carbonic anhydrase", "result": "could be attenuated upon tumor alkalinization"}]}
